Paper PMC8958504 (Journal of Medicinal Chemistry, 2022)
Like-named read-outs stand apart in the source and are kept apart here.

Key:
hMAO-A = biological target: T1, hMAO-A (Homo sapiens, UniProt P21397); test: biochemical; conditions: for IC50: read-out: hMAO-A (IC50), recombinant hMAO-A, p-tyramine substrate
T1 sequence (P21397 1-527): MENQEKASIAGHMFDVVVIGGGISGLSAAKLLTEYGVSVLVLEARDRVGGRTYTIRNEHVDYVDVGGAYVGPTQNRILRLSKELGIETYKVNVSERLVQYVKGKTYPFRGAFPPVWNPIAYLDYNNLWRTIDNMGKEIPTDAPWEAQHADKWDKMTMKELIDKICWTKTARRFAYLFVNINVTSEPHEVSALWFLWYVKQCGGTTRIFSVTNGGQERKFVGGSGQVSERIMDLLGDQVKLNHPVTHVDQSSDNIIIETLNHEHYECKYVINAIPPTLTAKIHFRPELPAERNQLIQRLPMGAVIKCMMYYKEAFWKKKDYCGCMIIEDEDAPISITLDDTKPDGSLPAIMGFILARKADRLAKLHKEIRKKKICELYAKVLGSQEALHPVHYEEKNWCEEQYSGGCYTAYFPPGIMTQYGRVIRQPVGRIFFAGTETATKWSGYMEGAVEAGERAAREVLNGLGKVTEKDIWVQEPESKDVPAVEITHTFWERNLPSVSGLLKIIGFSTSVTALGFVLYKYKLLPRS
Method: (§1) The hMAO-A/B inhibition of all compounds was determined using the Amplex Red MAO assay kit.
(§2) Assays were performed following the general procedure previously described.[98] […] The specific fluorescence emission was calculated after subtracting the background activity, which was determined from wells containing all components except the hMAO isoforms, which were replaced with PBS.

hMAO-B = biological target: T2, hMAO-B (Homo sapiens, UniProt P27338); test: biochemical; conditions: for IC50: read-out: hMAO-B (IC50), recombinant hMAO-B, p-tyramine substrate
T2 sequence (P27338 1-520): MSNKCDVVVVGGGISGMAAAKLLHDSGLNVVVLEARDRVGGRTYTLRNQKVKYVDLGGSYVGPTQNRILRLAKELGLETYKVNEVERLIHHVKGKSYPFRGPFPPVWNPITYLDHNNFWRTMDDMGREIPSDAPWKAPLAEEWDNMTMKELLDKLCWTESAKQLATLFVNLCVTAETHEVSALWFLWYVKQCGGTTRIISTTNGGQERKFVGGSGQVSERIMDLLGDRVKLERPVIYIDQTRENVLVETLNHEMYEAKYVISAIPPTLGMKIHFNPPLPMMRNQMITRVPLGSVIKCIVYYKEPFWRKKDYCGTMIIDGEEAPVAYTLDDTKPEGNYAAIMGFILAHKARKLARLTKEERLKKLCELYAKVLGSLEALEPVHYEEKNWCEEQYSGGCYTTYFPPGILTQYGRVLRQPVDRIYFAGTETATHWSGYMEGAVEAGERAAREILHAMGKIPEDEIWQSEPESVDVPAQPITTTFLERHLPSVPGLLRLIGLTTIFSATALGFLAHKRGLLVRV
Method: as §1, §2

[1] = system: NRF2-ARE signaling pathway; test: cells; type: cell-based; conditions: for EC (2-fold induction): Arec32, 24 h, read-out: NRF2 (CD, μM), concentration required to double luciferase activity, AREc32 cells, 24 h; for NRF2 (CD, μM): concentration required to double luciferase activity, AREc32 cells, 24 h
Method: AREc32 cells were plated in 96-well white plates (2 × 10^4 cells/well). […]. The AREc32 cells constitutively express the plasmid pGL-8xARE that implements eight copies of the EpRE sequences, followed by the luciferase reporter gene. Therefore, NRF2 induction is related to the activation of EpRE sequences, expressing luciferase at the same extent as EpRE sequences are activated. The Luciferase Assay System (Promega E1500) was used according to the provider’s protocol, and luminescence was quantified in an Orion II microplate luminometer (Berthold, Germany). Fold induction of luciferase activity was normalized to basal conditions. Data are expressed as CD values, expressing the concentration required to double the luciferase activity. CD values were calculated from dose–response curves generated from the fold induction of control conditions versus inducer concentration and fitted by nonlinear regression and data interpolated to twofold induction concentration.[68]

[2] = Oxygen radical absorbance capacity (ORAC-FL) assay; conditions: trolox = 1.0
Method: 2,2′-Azobis-(amidinopropane) dihydrochloride (AAPH), trolox, and fluorescein (FL) were purchased from Sigma-Aldrich. The reaction was carried out in a 75 mM phosphate buffer (pH 7.4), and the final reaction mixture was 200 μL. […] Antioxidant curves (fluorescence vs time) were first normalized to the curve of the blank corresponding to the same assay, and the area under the curve (AUC) of fluorescence decay was calculated. The net AUC corresponding to a sample was calculated by subtracting the AUC corresponding to the blank. Regression equations between the net AUC and antioxidant concentration were calculated for all the samples.

in vitro = in vitro ADME; conditions: for Papp at 240 min, 100 μg mL^–1: PAMPA; for PAMPA-BBB (Pe, 10^–6 cm s^–1): porcine brain lipid
QR2 = biological target: T3, QR2 (Mesocricetus auratus, UniProt A0ABM2YAB8); test: biochemical
T3 sequence (A0ABM2YAB8 1-231): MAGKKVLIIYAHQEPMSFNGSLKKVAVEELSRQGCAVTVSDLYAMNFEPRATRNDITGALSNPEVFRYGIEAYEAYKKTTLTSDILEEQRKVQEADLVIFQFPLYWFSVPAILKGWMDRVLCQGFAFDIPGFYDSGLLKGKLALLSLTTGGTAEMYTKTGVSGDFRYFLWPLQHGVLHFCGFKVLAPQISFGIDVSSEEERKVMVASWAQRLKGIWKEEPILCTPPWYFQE
Method: The QR2 experiments were performed in membrane homogenates of hamster brains (https://www.eurofins.fr, catalog ref. 0088). […] First, radioligand displacement was measured at a fixed compound concentration (10 μM) in each receptor.

[3] = pH 7.4, class from PAMPA-BBB Pe, read-out: CNS-permeability prediction
[4] = PBS/EtOH (70:30), 240 min, 25 °C

Q: With `O=c1[nH]nc(/C=C/c2cc(O)cc(O)c2)o1` [3p, 5-[(E)-2-(3,5-Dihydroxyphenyl)ethenyl]-1,3,4-oxadiazol-2(3H)-one] as the compound, how does the IC50 (hMAO-A) read?
A: > 50 µM

Q: And the IC50 (hMAO-B)?
A: > 50 µM

Q: What about the EC (2-fold induction) [1] of the same compound?
A: > 60 µM

Q: What about the “ORAC (trolox equiv)” value [2] of the same compound?
A: 1.9 ± 0.1 trolox equiv

Q: And the Papp at 240 min, 100 μg mL^–1 (in vitro; [3])?
A: < 2 ×10⁻⁶ cm/s

Q: And the “PAMPA-BBB (Pe, 10^–6 cm s^–1)” value (in vitro; [4])?
A: ≤ 0.1 10^–6 cm s^–1

Q: For `C#CCNC(=O)/C=C/c1cccc(C#N)c1` [6b, (2E)-3-(3-Cyanophenyl)-N-(prop-2-yn-1-yl)prop-2-enamide], which IC50 (hMAO-A) is on record?
A: > 50 µM

Q: And the IC50 (hMAO-B)?
A: > 50 µM

Q: What about the EC (2-fold induction) [1] of the same compound?
A: > 60 µM

Q: And the “ORAC (trolox equiv)” value [2]?
A: <0.1 trolox equiv

Q: With `C#CCNC(=O)/C=C/c1ccc(OC)cc1` [6e, (2E)-3-(4-Methoxyphenyl)-N-(prop-2-yn-1-yl)prop-2-enamide] as the compound, how does the IC50 (hMAO-A) read?
A: > 50 µM

Q: What about the IC50 (hMAO-B) of the same compound?
A: > 50 µM

Q: What about the “ORAC (trolox equiv)” value [2] of the same compound?
A: <0.1 trolox equiv

Q: With `C#CCNC(=O)/C=C/c1cccc(O)c1` [6l, (2E)-3-(3-Hydroxyphenyl)-N-(prop-2-yn-1-yl)prop-2-enamide] as the compound, how does the IC50 (hMAO-A) read?
A: > 50 µM

Q: What about the IC50 (hMAO-B) of the same compound?
A: > 50 µM

Q: What about the “ORAC (trolox equiv)” value [2] of the same compound?
A: 3.0 ± 0.3 trolox equiv

Q: For `C#CCNC(=O)/C=C/c1ccc(O)cc1` [6m, (2E)-3-(4-Hydroxyphenyl)-N-(prop-2-yn-1-yl)prop-2-enamide], which IC50 (hMAO-A) is on record?
A: > 50 µM

Q: And the IC50 (hMAO-B)?
A: 31.1 ± 1.57 µM

Q: What about the “ORAC (trolox equiv)” value [2] of the same compound?
A: 3.0 ± 0.2 trolox equiv

Q: Which results are given for `C#CCNC(=O)/C=C/c1ccc(O)c(OC)c1` [6n, (2E)-3-(4-Hydroxy-3-methoxyphenyl)-N-(prop-2-yn-1-yl)prop-2-enamide]?
A: IC50 (hMAO-A): > 50 µM; inhibition at 50 µM (hMAO-A; read-out: hMAO-A percentage of inhibition (in brackets)): 33%; IC50 (hMAO-B): > 50 µM; inhibition at 50 µM (hMAO-B; read-out: hMAO-B percentage of inhibition (in brackets)): 33%; EC (2-fold induction) [1]: > 60 µM; NRF2 (CD, μM) [1]: >60 µM; ORAC (trolox equiv) [2]: 0.5 ± 0.03 trolox equiv; Papp at 240 min, 100 μg mL^–1 (in vitro; [3]): < 2 ×10⁻⁶ cm/s; Papp at 240 min, 100 μg mL^–1 (in vitro; pH 7.4, porcine brain lipid, PBS/EtOH (70:30), 240 min, 25 °C, read-out: PAMPA-BBB): < 2 ×10⁻⁶ cm/s; PAMPA-BBB (Pe, 10^–6 cm s^–1) (in vitro; [4]): ≤ 0.5 10^–6 cm s^–1

Q: With `C[C@]12CCC(=O)C=C1CC[C@@H]1[C@@H]2[C@@H](O)C[C@]2(C=O)[C@@H](C(=O)CO)CC[C@@H]12` [Aldosterone, reference compound] as the compound, how does the Papp at 240 min, 100 μg mL^–1 (in vitro; pH 7.4, PAMPA standards, mean ± SD of three experiments, read-out: Permeability Pe, Exp) read?
A: 3.1 ± 0.2 ×10⁻⁶ cm/s

Q: With `COc1ccc2[nH]cc(CCNC(C)=O)c2c1` [melatonin, reference compound] as the compound, how does the IC50 (QR2) read?
A: 0.077 ± 0.001 µM

Q: Which EC (2-fold induction) [1] does the source give for `C[S+]([O-])CCCCN=C=S` (stereo not drawn) [sulforaphane, reference compound] here?
A: 1.24 µM

Q: And the “NRF2 (CD, μM)” value [1]?
A: 1.24 ± 0.28 µM
